Measurements from patent US20130295115A1, “COMPOSITIONS AND METHODS FOR TREATING […]” (priority 2010, published 2013).

System: VSV
Format: cell-based, Vesicular Stomatitis Virus

Substance: Ammonium Iron(III) Citrate
- VSV binding: no affect
